Laboratory results taken from publication PMC10869683, “Structure of recombinant formate dehydrogenase from Methylobacterium extorquens (MeFDH1)” (Scientific Reports, 2024).

Legend:
[1] = target: T1, recombinant MeFDH1 (alpha/beta heterodimer), MeFDH1-β FMN / diaphorase site (Methylorubrum extorquens, UniProt C5ATT6); assay: cryo-EM structure, […] Å; assay type: binding; conditions: FMN site at the center of the beta subunit
T1 construct: gene fdh1B; same complex as P1, site in beta subunit; C-terminal His6 on alpha; expressed in M. extorquens AM1 fdh1 knockout; heterodimer ~169 kDa; with Formate dehydrogenase subunit alpha (tungsten-containing formate dehydrogenase alpha subunit)

[2] = target: T1, recombinant MeFDH1 (alpha/beta heterodimer), MeFDH1-β FMN / diaphorase site; assay: formate oxidation coupled to NAD+ reduction, A340; assay type: biochemical; conditions: 30 mM potassium formate, 0.5 mM NAD+, 50 mM MOPS, 30 °C; pH not given; site in beta inferred by homology
[3] = target: T2, recombinant MeFDH1 (alpha/beta heterodimer), MeFDH1-α active site (Methylorubrum extorquens, UniProt C5ATT7); conditions: 30 mM potassium formate, 0.5 mM NAD+, 50 mM MOPS, 30 °C; pH not given
T2 construct: gene fdh1A
T2 sequence (C5ATT7 1-989): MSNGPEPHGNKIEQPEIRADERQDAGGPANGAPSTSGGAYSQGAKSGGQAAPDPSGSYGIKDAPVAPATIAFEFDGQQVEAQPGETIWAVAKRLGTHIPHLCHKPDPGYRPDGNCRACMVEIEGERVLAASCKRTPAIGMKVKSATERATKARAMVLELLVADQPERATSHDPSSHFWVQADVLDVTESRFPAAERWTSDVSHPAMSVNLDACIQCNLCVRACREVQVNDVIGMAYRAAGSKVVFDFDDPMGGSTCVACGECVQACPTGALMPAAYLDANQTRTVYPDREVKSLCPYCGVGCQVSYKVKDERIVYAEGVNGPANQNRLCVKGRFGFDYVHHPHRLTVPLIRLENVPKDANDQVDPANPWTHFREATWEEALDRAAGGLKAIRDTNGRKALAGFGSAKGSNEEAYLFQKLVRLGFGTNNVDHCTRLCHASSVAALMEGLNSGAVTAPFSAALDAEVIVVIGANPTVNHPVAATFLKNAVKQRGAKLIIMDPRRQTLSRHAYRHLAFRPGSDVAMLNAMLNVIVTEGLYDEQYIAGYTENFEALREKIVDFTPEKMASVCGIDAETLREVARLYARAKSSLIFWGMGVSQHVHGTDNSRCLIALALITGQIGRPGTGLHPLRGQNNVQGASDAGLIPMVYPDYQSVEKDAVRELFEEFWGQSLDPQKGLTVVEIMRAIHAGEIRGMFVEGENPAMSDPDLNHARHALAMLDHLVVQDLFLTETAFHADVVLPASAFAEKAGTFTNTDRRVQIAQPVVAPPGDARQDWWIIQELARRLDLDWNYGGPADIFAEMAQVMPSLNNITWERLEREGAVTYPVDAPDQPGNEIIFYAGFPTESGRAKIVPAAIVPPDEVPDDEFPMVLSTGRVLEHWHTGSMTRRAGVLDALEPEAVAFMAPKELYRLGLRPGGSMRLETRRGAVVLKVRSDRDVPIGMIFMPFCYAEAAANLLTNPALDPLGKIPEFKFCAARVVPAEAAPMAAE
T2 sequence (C5ATT6 1-572 partner): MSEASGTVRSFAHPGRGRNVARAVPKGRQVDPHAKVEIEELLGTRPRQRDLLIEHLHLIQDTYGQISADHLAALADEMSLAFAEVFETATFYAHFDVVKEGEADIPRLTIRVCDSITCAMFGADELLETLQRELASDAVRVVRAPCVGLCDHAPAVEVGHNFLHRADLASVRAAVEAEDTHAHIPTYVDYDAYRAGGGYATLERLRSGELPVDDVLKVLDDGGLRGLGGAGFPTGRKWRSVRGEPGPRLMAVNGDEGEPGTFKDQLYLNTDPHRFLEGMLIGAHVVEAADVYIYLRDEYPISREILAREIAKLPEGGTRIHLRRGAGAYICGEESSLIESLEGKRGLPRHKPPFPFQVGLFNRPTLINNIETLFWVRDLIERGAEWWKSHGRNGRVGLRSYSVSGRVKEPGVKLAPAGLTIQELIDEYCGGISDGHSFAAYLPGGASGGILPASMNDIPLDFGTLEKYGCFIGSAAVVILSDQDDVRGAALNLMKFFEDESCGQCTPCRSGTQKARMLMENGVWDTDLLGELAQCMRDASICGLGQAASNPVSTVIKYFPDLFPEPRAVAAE

Structure (SMILES): Cc1cc2nc3c(=O)[nH]c(=O)nc-3n(C[C@H](O)[C@H](O)[C@H](O)COP(=O)(O)O)c2cc1C [FMN]
- cryo-EM structure, 2.8 Å [1]: FMN is coordinated at the center of the MeFDH1-β subunit

Structure (SMILES): NC(=O)c1ccc[n+]([C@@H]2O[C@H](COP(=O)(O)OP(=O)(O)OC[C@H]3O[C@@H](n4cnc5c(N)ncnc54)[C@H](O)[C@@H]3O)[C@@H](O)[C@H]2O)c1 [NAD^+]
- formate oxidation coupled to NAD+ reduction, A340 [2]: measuring its formate oxidation reaction coupled with NAD^+ reduction

Structure (SMILES): O=CO [formate]
- formate oxidation coupled to NAD+ reduction, A340 [3]: measuring its formate oxidation reaction coupled with NAD^+ reduction
